The subject of series [1] is SMMC-7721. The series can be described thus: Antiproliferative activity against human SMMC-7721 cells measured after 48 hrs. Type of series: functional, cell-based. The conditions noted are these: SMMC-7721, 48 h.
The subject of series [2] is SMMC-7721. The series can be described thus: Antitumor activity against human SMMC-7721 cells xenografted in mouse assessed as reduction in tumor volume at 20 mg/kg administered once every two days for 21 days relative to control. Type of series: functional. The conditions noted are these: time 21 day. More on the design: scale not given: the % may be the effect or the level left.

Series [3] concerns HepG2. The series can be described thus: Anticancer activity against human HepG2 cells by SRB assay. It is filed as functional, cell-based.
For series [4], the system named is HepG2. In words: Anticancer activity against human HepG2 cells by MTT assay. It is filed as functional, cell-based.
Series [5] concerns Hep 3B2. In words: Cytotoxicity against human Hep3B cells. Type of series: functional, cell-based.
Series [6] concerns Huh-7. In words: Cytotoxicity against human Huh-7 cells. Type of series: functional, cell-based.
Series [7] has as its system HepG2. In words: Antiproliferative activity against doxorubicin resistant human HepG2 cells at 50 uM incubated for 24 hrs by MTT assay relative to control. It is filed as functional.
The test system of series [8] is HepG2. In words: Antiproliferative activity against doxorubicin sensitive human HepG2 cells assessed as decrease in cell proliferation at 50 uM incubated for 24 hrs by MTT assay relative to control. More on the design: scale not given: the % may be the effect or the level left. It is filed as functional.
Series [9] concerns Bel-7402. In words: Growth inhibition of human Bel-7402 cells. It is filed as functional, cell-based.
The subject of series [10] is HepG2. In words: Cytotoxicity against human HepG2 cells measured after 3 days by MTT assay. Type of series: functional, cell-based. The conditions noted are these: HepG2, 72 h.
A short description of series [11]: Cytotoxicity against human HepG3 cells measured after 3 days by MTT assay. It is filed as functional, cell-based. To be noted: HepG3, 72 h.
For series [12], the system named is HepG2. In words: Antimigratory activity against human HepG2 cells assessed as reduction in cell migration by cell migration assay. Type of series: functional, cell-based.
In series [13] the test system is Hep 3B2. In words: Cytotoxicity against human Hep3B cells measured after 1 hr by SRB assay. Type of series: functional, cell-based.
In series [14] the test system is SK-HEP1. In words: Cytotoxicity against human SK-HEP1 cells measured after 1 hr by SRB assay. It is filed as functional, cell-based. The conditions noted are these: SK-HEP1, 1 h.
Series [15] has as its system PLC-PRF-5. In words: Cytotoxicity against human PLC-PRF-5 cells measured after 1 hr by SRB assay. It is filed as functional, cell-based. The conditions noted are these: PLC-PRF-5, 1 h.
Series [16] in a line: Cytotoxicity against human Huh-7D12 cells measured after 1 hr by SRB assay. Type of series: functional, cell-based. To be noted: Huh-7D12, 1 h.
Series [17] relates to HepG2. The series can be described thus: Cytotoxicity against human HepG2 cells measured after 1 hr by SRB assay. It is filed as functional, cell-based. The conditions noted are these: HepG2, 1 h.
For series [18], the system named is Bel-7402. The series can be described thus: Cytotoxicity against human Bel-7402 cells incubated for 72 hrs by SRB assay. It is filed as functional, cell-based. The conditions noted are these: Bel-7402, 72 h.
In series [19] the test system is H22. The series can be described thus: Antitumor activity against […] cells xenografted in mouse assessed as reduction in tumor volume at 45 mg/kg, ip measured after 21 days by caliper method relative to control. Type of series: functional. More on the design: scale not given: the % may be the effect or the level left. The conditions noted are these: time 21 day.

Series [20] concerns H22. In words: Antitumor activity against […] cells xenografted in mouse assessed as reduction in tumor volume at 15 mg/kg, ip measured after 21 days by caliper method relative to control. Type of series: functional. More on the design: scale not given: the % may be the effect or the level left. To be noted: time 21 day.
Series [21] is described as follows: Half life in Kunming mouse at 15 to 30 mg/kg measured upto 240 mins. It is filed as ADME, organism-based. To be noted: in vivo, dose 15-30 mg/kg.
The test system of series [22] is Bel-7402. The series can be described thus: Antitumor activity against human Bel-7402 cells xenografted in mouse assessed as reduction in tumor volume at 14 mg/kg, ip administered daily for 21 days by caliper method relative to control. Type of series: functional. Also noted: scale not given: the % may be the effect or the level left. The conditions noted are these: time 21 day.

Series [23] concerns SMMC-7721. In words: Cytotoxicity against human SMMC-7721 cells incubated for 72 hrs by SRB assay. It is filed as functional, cell-based. The conditions noted are these: SMMC-7721, 72 h.
Series [24] deals with Bel-7402. In words: Antitumor activity against human Bel-7402 cells xenografted in mouse assessed as reduction in tumor volume at 7 mg/kg, ip administered daily for 21 days by caliper method relative to control. It is filed as functional. Also noted: scale not given: the % may be the effect or the level left. To be noted: time 21 day.
Series [25] concerns H22. In words: Antitumor activity against […] cells xenografted in mouse assessed as reduction in tumor volume at 5 mg/kg, ip measured after 21 days by caliper method relative to control. It is filed as functional. Also noted: scale not given: the % may be the effect or the level left. The conditions noted are these: time 21 day.
Series [26] relates to Bel-7402. The series can be described thus: Antitumor activity against human Bel-7402 cells xenografted in mouse assessed as reduction in tumor volume at 28 mg/kg, ip administered daily for 21 days by caliper method relative to control. Type of series: functional. Also noted: scale not given: the % may be the effect or the level left. To be noted: time 21 day.

pIC50: −log10 of the molar value.

`C[C@@]12C[C@@H](O)C[C@]3(C)C4=CC(=O)OCC4=C[C@@H](OC1=O)C23` (stereo partly specified): in [1], the pIC50 was 4.72. The Activity in series [2] turned out to be 86.4%.

In turn, `CC1=CC[C@@H]2[C@@H](CC[C@@]2(C)O)C(C)(C)[C@H]1CC[C@@H]1[C@@]2(C)CC[C@@H](O)C(C)(C)O[C@@H]2CC[C@]1(C)O` had a pIC50 in series [3] of 4.76.

`CCCCCC1=C/C(=C\c2[nH]c(-c3ccc[nH]3)cc2OC)N=C1C` had a pIC50 in [4] of 7.40.

For `COc1cc(O)c2c(c1O)C(=O)C1=C(C2=O)C(O)C(O)C(C)(O)C1` (stereo unspecified), the pIC50 in series [5] is 5.49; in series [6], 5.02.

Turning to `C/C=C1/C(=C\c2[nH]c(/C=C3N=C(/C=C4/NC(=O)C(CC)=C4C)C(C)=C/3CCC(=O)O)c(CCC(=O)O)c2C)NC(=O)C1C` (stereo unspecified), the Activity in series [7] was 50%; in [8], 40%.

`Oc1cc(Br)c(Cc2cc(O)c(O)cc2Br)cc1O` showed a pIC50 in series [9] of 4.80.

On to `C=C(CC[C@@H](C)[C@H]1[C@@H](O)C[C@H]2[C@@H]3CC=C4C[C@@H](O[C@@H]5O[C@@H](C)[C@@H](OC(C)=O)[C@@H](O)[C@@H]5O)CC[C@]4(C)[C@H]3[C@H](O)C[C@]12C)C(C)C`, for which the pIC50 in series [10] is 4.75; in series [11], 4.72.

In the case of `CC[C@H]1C=CCC[C@@]2(C[C@@H]3CC[C@]4(O)[C@H](C(=O)OCCCCCCCCCCCCCCCC(=O)N(CCCN)C[C@@H](O)CCN)[C@]5(CCC[C@@H](C)O5)NC(=N2)N34)O1`, the pIC50 in series [12] is 6.74.

On to `C/C=C1/NC(=O)[C@H](Cc2ccccc2)NC(=O)[C@@H](C(C)C)NC(=O)[C@@H]([C@@H](C)CC)NC(=O)[C@H](NC(=O)[C@H](NC(=O)[C@H](CCCN)NC(=O)[C@H]2CCCN2C(=O)[C@H](NC(=O)[C@@H](NC(=O)[C@@H](NC(=O)[C@H](NC(=O)CCCC(C)C)C(C)C)[C@@H](C)O)C(C)C)C(C)C)[C@@H](C)CC)[C@@H](C)OC(=O)[C@H](C(C)C)NC1=O`, for which the pIC50 in series [13] is 6.46; in [14] it was 5.62; in series [15], 5.28; in [16], 6.52; in series [17], 6.52.

As to `Cc1cc(O)cc(O)c1OC1C(=O)Oc2c(C)cc(O)c3c2C1c1cc(O)cc(O)c1C3=O` (stereo unspecified), the figures for the pIC50 in series [18] and in series [23] were > 5.22 and > 5.40, respectively. The Activity in [19] amounted to 66%; in series [20], 62%; in series [22] it was 51.2%; in [24], 48.8%; in series [25] it was 55%; in series [26] it was 59.9%. The half-life in [21] was 40 min.

Values taken from ChEMBL document CHEMBL5236548, “Marine Natural Products: A Potential Source of Anti-hepatocellular Carcinoma Drugs” (J Med Chem, 2021).
